From PubChem BioAssay AID602264 (The Scripps Research Institute Molecular Screening Center, 2012)
Active and inactive are the calls of the source. The rule behind the calls is not given here.

Biological target: Mu-type opioid receptor (Homo sapiens) + Delta-type opioid receptor (Homo sapiens) (UniProt P35372+P41143)
Experiment: OPRM1-OPRD1 heterodimer agonist potency – cell-based, luminescence, counter-screen for MC4R biased agonist project, dose response (AID 602264)
Conditions: cell-based OPRM1-OPRD1 heterodimerization

Sequence of Mu-type opioid receptor (Homo sapiens) + Delta-type opioid receptor (Homo sapiens) (P35372 whole entry, looked up): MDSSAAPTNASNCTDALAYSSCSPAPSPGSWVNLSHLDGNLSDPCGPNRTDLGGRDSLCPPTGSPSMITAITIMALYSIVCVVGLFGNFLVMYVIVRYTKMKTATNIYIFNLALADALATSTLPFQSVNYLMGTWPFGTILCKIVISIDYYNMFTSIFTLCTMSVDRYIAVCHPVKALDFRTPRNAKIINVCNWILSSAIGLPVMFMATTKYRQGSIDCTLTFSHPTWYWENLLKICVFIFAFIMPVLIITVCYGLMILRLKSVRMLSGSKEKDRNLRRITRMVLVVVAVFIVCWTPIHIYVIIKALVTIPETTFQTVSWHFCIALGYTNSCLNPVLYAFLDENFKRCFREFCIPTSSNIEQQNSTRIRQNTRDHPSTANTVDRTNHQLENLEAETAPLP
Sequence of Mu-type opioid receptor (Homo sapiens) + Delta-type opioid receptor (Homo sapiens) (P41143 whole entry, looked up): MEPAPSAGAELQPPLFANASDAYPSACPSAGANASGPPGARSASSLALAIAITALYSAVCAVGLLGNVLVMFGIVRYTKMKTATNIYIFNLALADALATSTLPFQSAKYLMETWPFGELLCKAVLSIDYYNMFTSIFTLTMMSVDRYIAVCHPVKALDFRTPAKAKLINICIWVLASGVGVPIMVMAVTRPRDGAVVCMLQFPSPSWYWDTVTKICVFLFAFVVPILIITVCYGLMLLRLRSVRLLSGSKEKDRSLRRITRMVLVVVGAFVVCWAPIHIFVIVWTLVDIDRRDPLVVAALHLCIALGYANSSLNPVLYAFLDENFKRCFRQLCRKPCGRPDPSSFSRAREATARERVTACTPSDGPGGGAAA

Row | EC50 | SMILES
1 | > 64.6 µM (inactive) | CC(=O)Nc1cc(-c2ccc(CO)cc2)cn2c(-c3cccc(C(F)(F)F)c3)cnc12
2 | > 64.6 µM (inactive) | C/C(=N\NC(=O)COc1cccc2ccccc12)c1cccs1
3 | > 92.5 µM (inactive) | O=CNc1cc(-c2ccsc2)cn2c(-c3ccccc3)cnc12
4 | > 64.6 µM (inactive) | Cc1ccc(C(=O)c2coc3c2C(=O)C(=O)c2ccccc2-3)cc1
5 | > 92.5 µM (inactive) | COC(=O)c1c(NC(=O)CC2SC(N)=NC2=O)sc2c1CCC(C(C)(C)C)C2 (stereo not drawn)
6 | > 92.5 µM (inactive) | Cc1cc(C)c2nc(Nc3nc(-c4ccccc4)cc(=O)[nH]3)nc(C)c2c1
7 | inactive | O=C1OC(c2ccccc2)(c2cc(Br)ccc2O)c2ccccc21 (stereo not drawn)
8 | inactive | O=C(NC(c1ccccc1)c1ccc2ccccc2n1)C1CCN(CCOc2ccc(Cl)cc2Cl)CC1 (stereo not drawn)
9 | > 92.5 µM (inactive) | O=C(COc1ccc2c(c1)OCO2)Nc1ccc2c(c1)oc1ccccc12
10 | > 64.6 µM (inactive) | CC(=O)Nc1cc(-c2ccc(N(C)C)cc2)cn2c(-c3ccc(F)cc3)cnc12
11 | > 92.5 µM (inactive) | CC(=O)Nc1cc(-c2ccccc2F)cn2c(-c3cccc(C(F)(F)F)c3)cnc12
12 | > 92.5 µM (inactive) | Cc1ccc2[nH]c(=O)c3cc(C(=O)N(CCCOC(C)C)Cc4ccco4)sc3c2c1
13 | > 92.4 µM (inactive) | COc1ccc2oc(=O)c(-c3csc(Nc4cccc(O)c4)n3)cc2c1
14 | > 92.5 µM (inactive) | CC(=O)Nc1cc(-c2cccc(C(=O)NCCN(C)C)c2)cn2c(-c3cccc(C(F)(F)F)c3)cnc12
15 | > 64.6 µM (inactive) | COc1ccccc1-c1cc(NC(C)=O)c2ncc(-c3cccc(C(C)=O)c3)n2c1
16 | > 92.4 µM (inactive) | NC(Cc1ccc(Cl)cc1)c1csc(Nc2ccc(-c3ccccc3)nn2)n1 (stereo not drawn)

Row | EC50 | SMILES
17 | > 64.6 µM (inactive) | COc1cccc(-c2cnc3c(NC=O)cc(-c4ccoc4)cn23)c1
18 | > 92.5 µM (inactive) | CC(=O)Nc1cc(-c2cccc(F)c2)cn2c(-c3ccc(F)cc3)cnc12
19 | > 92.3 µM (inactive) | Clc1ccc(Cn2ncc3c(N4CCN(c5ccccc5)CC4)ncnc32)cc1
20 | > 92.5 µM (inactive) | CCN1CCN(Cc2ccc(NC(=O)c3cc(NC(=O)C(=O)c4c[nH]c5ccccc45)cc(OC)c3)cc2C(F)(F)F)CC1
21 | > 92.4 µM (inactive) | COc1ccccc1-c1cc(NC(C)=O)c2ncc(-c3ccccc3)n2c1
22 | > 92.5 µM (inactive) | COc1ccc(NC(=O)Nc2nnc(-c3ccccc3SCc3ccccc3)s2)cc1
23 | > 64.6 µM (inactive) | COc1cccc(-c2cnc3c(NC=O)cc(-c4cccc(C(=O)N(C)C)c4)cn23)c1
24 | > 64.6 µM (inactive) | COc1ccc2nc(NC(=O)CSc3nc4cccnc4n3C)sc2c1
25 | > 92.4 µM (inactive) | NC(Cc1ccc(C(F)(F)F)cc1)c1csc(Nc2nccc(C(F)(F)F)n2)n1 (stereo not drawn)
26 | > 64.6 µM (inactive) | CC(O)CC(=O)OC[C@]12CC[C@H]3[C@@](C)(CC[C@H]4C(C)(C)CCC[C@]34C)[C@@H]1CC(C1=CC(=O)OC1O)O2 (stereo partly drawn)
27 | > 64.6 µM (inactive) | Cc1ccc(C(=O)NCCNc2nc3cc(C)c(C)cc3cc2C)cc1
28 | > 64.6 µM (inactive) | COc1ccc(-c2cc(NC(C)=O)c3ncc(-c4ccc(OC)c(OC)c4)n3c2)cc1OC
29 | > 64.6 µM (inactive) | CCn1c(SCC(=O)Nc2ccc(C(C)=O)cc2)nc2nc3c(cc2c1=O)CCCC3
30 | > 92.4 µM (inactive) | O=C(NC(c1ccc(Cl)cc1)c1cccnc1)C1CCN(CCOc2ccc(Cl)cc2Cl)CC1 (stereo not drawn)
31 | > 64.6 µM (inactive) | CCOC(=O)c1ccc(-c2ccc(/C=C(\C#N)C(=O)NCc3cccs3)o2)cc1

Further lines, the molecule ahead of its results:

Row | SMILES | EC50
32 | Cc1c(CCOC(=O)CC23CC4CC(CC(C)(C4)C2)C3)sc[n+]1CC(=O)c1ccccc1 | > 92.5 µM (inactive)
33 | Cc1ccc(C2=NN(C(=O)c3cccs3)C(c3ccccc3O)C2)cc1 (stereo not drawn) | > 64.6 µM (inactive)
34 | Cc1ccc(OCC(=O)NC(=S)Nc2cccc(NC(=O)c3ccccc3)c2)cc1 | > 64.6 µM (inactive)
35 | COc1cccc(-c2cnc3c(NC=O)cc(-c4ccc(O)c(OC)c4)cn23)c1 | > 64.6 µM (inactive)
36 | CC1CCC(C(C)C)C(OC(=O)C[n+]2cc(-c3ccc(Cl)cc3)n3c2CCCCC3)C1 (stereo not drawn) | > 92.5 µM (inactive)
37 | Cc1nc(NC(=O)c2cccc(-c3cc4ccccc4oc3=O)c2)ccc1Br | > 64.6 µM (inactive)
38 | CC(=O)Nc1cc(-c2ccc(N(C)C)cc2)cn2c(-c3ccc(F)c(Cl)c3)cnc12 | > 92.5 µM (inactive)
39 | Cc1ccc2nc(Nc3ccc4[nH]c(=O)[nH]c4c3)c(-n3nc(C)cc3C)nc2c1 | > 64.6 µM (inactive)
40 | COc1ccc(CNCCc2ccc(Cl)cc2)cc1OCc1ccccc1 | > 92.5 µM (inactive)
41 | CC(=O)Nc1cc(-c2ccc(F)cc2)cn2c(-c3ccc(F)c(Cl)c3)cnc12 | > 64.6 µM (inactive)
42 | CC(=O)Nc1cc(-c2ccccc2N(C)C)cn2c(-c3ccccc3)cnc12 | > 92.4 µM (inactive)
43 | COc1ccc(NC(=O)Nc2nc(C(N)Cc3ccc(C(F)(F)F)cc3)cs2)cc1 (stereo not drawn) | > 64.6 µM (inactive)
44 | CCC(C)NC(=O)c1c(N)n(/N=C/c2cccnc2)c2nc3ccccc3nc12 (stereo not drawn) | > 92.4 µM (inactive)
45 | OC(CNCCc1ccc(C(F)(F)F)cc1)COc1cccc2ccccc12 (stereo not drawn) | > 92.5 µM (inactive)
46 | Clc1ccc(C2=Nn3c(nnc3-c3cc(-c4ccccc4)n[nH]3)SC2)cc1 | inactive
47 | CCN1/C(=C/c2ccc3cc(C)ccc3[n+]2CC)Sc2cc(C)c(C)cc21 | > 10.3 µM (inactive)
48 | Cc1cc(C)cc(OCC(O)CN2CCC(CN3C(=O)c4cccc5cccc(c45)C3=O)CC2)c1 (stereo not drawn) | > 64.6 µM (inactive)
49 | COc1ccc(-c2cnc3c(NC(C)=O)cc(-c4cc(F)ccc4OC)cn23)cc1OC | > 64.6 µM (inactive)
50 | O=C1C2=C(NC(=S)NC2c2ccc(Cl)cc2)NC(c2ccc(Cl)cc2)N1c1ccc(Cl)cc1 (stereo not drawn) | inactive

Row | SMILES | EC50
51 | CCCOc1ccc(C(=O)C(CCC(CNCC)C(=O)c2ccc(OCCC)cc2)CNCC)cc1 (stereo not drawn) | > 92.5 µM (inactive)
52 | CCCCCCCCCCCCCCCC[n+]1ccc(/C=N/O)cc1 | > 64.6 µM (inactive)
53 | N#C/C(=C\c1cn(CCOc2ccccc2)c2ccccc12)C(=O)NCc1ccco1 | > 92.5 µM (inactive)
54 | Cc1cccnc1C(NC(=O)C1CCN(CCOc2ccc(Cl)cc2Cl)CC1)c1ccc(Cl)cc1 (stereo not drawn) | inactive
55 | CCCCCCCNC(=O)C1(CC2CC(c3ccc(Cl)cc3)=NO2)CCNCC1 (stereo not drawn) | > 64.6 µM (inactive)
56 | NC(Cc1ccc(Cl)cc1)c1csc(NC(=O)Nc2ccccc2)n1 (stereo not drawn) | > 64.6 µM (inactive)
57 | O=C(NC(c1ccccc1)c1ccsc1)C1CCN(CCOc2ccc(Cl)cc2Cl)CC1 (stereo not drawn) | inactive
58 | CC(/C=C/C=C/c1ccccc1)=N/NC(=O)CNc1ccccc1C | > 64.6 µM (inactive)
59 | COc1ccccc1-c1cc(NC=O)c2ncc(-c3cccc(C(F)(F)F)c3)n2c1 | > 64.6 µM (inactive)
60 | CC(=O)Nc1cc(-c2ccc(C(=O)NC3CC3)cc2)cn2c(-c3cccc(C(C)=O)c3)cnc12 | > 64.6 µM (inactive)
61 | CCN1CCN(Cc2ccc(NC(=O)c3cc(NC(=O)c4cc5cccc(OC)c5o4)cc(OC)c3)cc2C(F)(F)F)CC1 | > 64.6 µM (inactive)
62 | COc1cc(/C=C2\Oc3ccc(C#Cc4ccc(O)cc4)cc3C2=O)cc(OC)c1 | > 92.5 µM (inactive)
63 | COc1ccc(COc2ccsc2C(=O)Nc2ccc(Cl)c(Cl)c2)cc1 | > 64.6 µM (inactive)
64 | CC(C)c1ccc(NC(=O)CSc2ncccc2C(=O)Oc2cccc([N+](=O)[O-])c2)cc1 | > 92.5 µM (inactive)
65 | COc1ccc2[nH]c3c(C)c4ccncc4c(C)c3c2c1 | > 64.7 µM (inactive)
66 | COc1ccccc1-c1cc(NC(C)=O)c2ncc(-c3cccc(C(F)(F)F)c3)n2c1 | > 92.5 µM (inactive)
67 | O=C(Nc1nc2ccc(SC(F)F)cc2s1)c1ccc(NS(=O)(=O)c2ccc(F)c(F)c2)cc1 | > 64.6 µM (inactive)
68 | CCOCCCN(Cc1ccco1)C(=O)c1cc2c(=O)[nH]c3ccc(C)cc3c2s1 | > 64.6 µM (inactive)
69 | Cc1cc(C)c(CN2CCN(CCCn3cnc(C(=O)Nc4ccc(C)c(C)c4)n3)CC2)c(C)c1 | > 92.5 µM (inactive)

Row | SMILES | EC50
70 | O=C(c1ccc(COc2ccc(Br)cc2)o1)N1N=C(C(F)F)CC1(O)C(F)F (stereo not drawn) | inactive
71 | COc1ccc(-c2cc(NC(C)=O)c3ncc(-c4cccc(C(F)(F)F)c4)n3c2)c(OC)c1 | > 92.5 µM (inactive)
72 | O=C(CCN1C(=O)/C(=C/C=C/c2ccccc2)SC1=S)Nc1cccnc1 | > 92.5 µM (inactive)
73 | Cc1cccnc1C(c1ccc(F)cc1)N(C)C(=O)C1CCN(CCOc2ccc(Cl)cc2Cl)CC1 (stereo not drawn) | > 92.5 µM (inactive)
74 | COc1ccc(-n2nc(C(=O)NCC(=O)Nc3ccccn3)c3ccccc3c2=O)cc1Cl | > 64.6 µM (inactive)
75 | N#Cc1sc2nc(-c3cccs3)cc(-c3ccc(F)cc3)c2c1N | > 92.5 µM (inactive)
76 | Cc1ccc(CN2CCC(c3cc(-c4ccc(Cl)cc4)n[nH]3)CC2)cc1 | > 92.5 µM (inactive)
77 | CCOC(=O)Cc1csc(NC(=O)c2sc3nc4cc(C)ccc4cc3c2N)n1 | > 92.4 µM (inactive)
78 | COc1cc(C(=O)Nc2nnc(-c3sccc3C)s2)cc(OC)c1OC | > 92.5 µM (inactive)
79 | COc1ccc(CNC(=O)Nc2nc(C(N)Cc3ccc(C(F)(F)F)cc3)cs2)cc1 (stereo not drawn) | > 64.6 µM (inactive)
80 | CCN1CCC(O)(/C=C/c2ccc(C(C)C)cc2)C(C(=O)/C=C/c2ccc(C(C)C)cc2)C1 (stereo not drawn) | > 64.6 µM (inactive)
81 | OC(CNCCc1ccc(C(F)(F)F)cc1)COC(c1ccccc1)c1ccccc1 (stereo not drawn) | > 64.6 µM (inactive)
82 | COc1cccc(-c2cnc3c(NC(C)=O)cc(-c4cc(F)ccc4OC)cn23)c1 | > 92.5 µM (inactive)
83 | COc1cccc(-c2cnc3c(NC(C)=O)cc(-c4cc(OC)c(OC)c(OC)c4)cn23)c1 | > 64.6 µM (inactive)
84 | CC(=O)Nc1cc(-c2cccnc2)cn2c(-c3cccc(C(F)(F)F)c3)cnc12 | > 92.5 µM (inactive)
85 | Clc1ccccc1/C=N/NC1=Nc2cccc3cccc1c23 | > 64.6 µM (inactive)
86 | COc1ccc2sc(-c3ccc(S(C)(=O)=O)cc3)c(C#Cc3cncn3C)c2c1 | > 92.5 µM (inactive)
87 | CCCCCCCCCCCCCCCC[N+](C)(C)Cc1ccc(F)cc1 | > 92.5 µM (inactive)
88 | CC(C)CC(N)c1csc(Nc2ccc(C(F)(F)F)cn2)n1 (stereo not drawn) | > 92.5 µM (inactive)
